Reference: patent US11730714B2, “Compounds for the treatment of neuromuscular disorders” (NMD PHARMA A/S, priority 2017, dated 2023)

Columns and labels:
[1] = system: rats injected with tubocurarine; assay: Rotarod running performance of rats after I.P. tubocurarine (myasthenia-like phenotype); format: in vivo, rat; details: C8 20 mg/kg I.P. 2 hrs before tubocurarine 0.13 mg/kg I.P.; tested 21 min after tubocurarine; sham around 2%
Procedure: FIGS. 9A-9B. […] FIG. 9A illustrates the design of the experiments. Prior to Day One the animals had been familiarized to the rotarod in three training sessions distributed over two days.
In both series of experiments, running performance was tested on a rotarod using a protocol where the rod was accelerated gradually over a 5 min period, and the running time and covered distance before falling off the rod were measured. […] Experiments with tubocurarine were carried out over two days, and on each day the effect of tubocurarine on running performance was tested. On the first day only tubocurarine was injected. […] On the second day, the animals were first allowed to run on the rotarod, and all animals performed normally. […] The allocation of the animals into the two groups (C8 or sham) was random and unknown to the experimenter (blinded experimental design).
In the first series of in vivo experiments, myasthenia gravis was simply mimicked by I.P. injection of tubocurarine (0.13 mg/kg) in animals that had been familiarized to running on the rotarod. On the first of two consecutive days, tubocurarine was injected I.P. and the running performance of the animal was tested 21 minutes after this injection. On the second day of experimentation, the animals first performed a test run to ensure that they were no longer affected by the tubocurarine injected the day before. […]

CIC-1 channels = biological target: T1, CIC-1 channels (Rattus norvegicus, UniProt P35524); assay: Electrophysiological measurement of compound inhibition of CIC-1 in rat muscle (Gm, EC50); format: cell-based; details: rat soleus muscle fibres, three micro-electrode Gm measurement; read-out: EC50 (inhibition of ClC-1 ion channel, Gm)
T1 construct: Gm was measured in individual fibres of whole rat soleus muscles; from tissue; host or cells: soleus muscle of adult (12-14 week old) Wistar rats
T1 sequence (P35524 1-994): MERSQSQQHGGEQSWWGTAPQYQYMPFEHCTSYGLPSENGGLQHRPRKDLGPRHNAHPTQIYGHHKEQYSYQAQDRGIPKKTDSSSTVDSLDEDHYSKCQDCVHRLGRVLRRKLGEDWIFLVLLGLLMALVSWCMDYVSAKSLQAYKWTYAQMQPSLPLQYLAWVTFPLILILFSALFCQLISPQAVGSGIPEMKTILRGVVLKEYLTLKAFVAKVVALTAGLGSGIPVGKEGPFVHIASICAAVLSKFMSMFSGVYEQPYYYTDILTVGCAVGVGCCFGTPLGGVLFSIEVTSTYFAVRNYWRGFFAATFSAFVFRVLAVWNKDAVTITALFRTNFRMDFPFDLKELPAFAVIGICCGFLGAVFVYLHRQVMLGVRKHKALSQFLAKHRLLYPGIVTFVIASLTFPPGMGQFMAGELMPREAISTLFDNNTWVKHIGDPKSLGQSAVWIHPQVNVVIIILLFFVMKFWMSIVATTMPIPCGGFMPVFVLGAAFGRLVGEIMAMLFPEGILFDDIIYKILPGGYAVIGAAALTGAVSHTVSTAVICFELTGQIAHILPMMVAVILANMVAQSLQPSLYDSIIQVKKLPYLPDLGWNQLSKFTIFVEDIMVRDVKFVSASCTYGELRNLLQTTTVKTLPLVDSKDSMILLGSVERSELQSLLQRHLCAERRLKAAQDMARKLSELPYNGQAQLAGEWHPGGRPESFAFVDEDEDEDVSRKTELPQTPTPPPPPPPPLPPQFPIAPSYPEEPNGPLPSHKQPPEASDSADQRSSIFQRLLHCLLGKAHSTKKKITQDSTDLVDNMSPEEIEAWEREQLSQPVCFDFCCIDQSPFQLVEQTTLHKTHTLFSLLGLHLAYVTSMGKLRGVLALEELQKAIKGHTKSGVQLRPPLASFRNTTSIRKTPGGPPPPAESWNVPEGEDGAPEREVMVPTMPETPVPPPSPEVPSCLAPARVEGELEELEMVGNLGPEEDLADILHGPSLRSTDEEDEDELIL

human CIC-1 channels = biological target: T2, human CIC-1 channels (Homo sapiens, UniProt P35523); assay: Automated patch-clamp on human CIC-1 expressed in CHO cells (shift in half activation voltage V1/2); format: cell-based; details: compound in intracellular solution vs vehicle control patches; CHO cells expressing human ClC-1
T2 construct: host or cells: CHO (Chinese hamster ovary) cells, cryopreserved, used directly after thawing
T2 sequence (P35523 whole entry): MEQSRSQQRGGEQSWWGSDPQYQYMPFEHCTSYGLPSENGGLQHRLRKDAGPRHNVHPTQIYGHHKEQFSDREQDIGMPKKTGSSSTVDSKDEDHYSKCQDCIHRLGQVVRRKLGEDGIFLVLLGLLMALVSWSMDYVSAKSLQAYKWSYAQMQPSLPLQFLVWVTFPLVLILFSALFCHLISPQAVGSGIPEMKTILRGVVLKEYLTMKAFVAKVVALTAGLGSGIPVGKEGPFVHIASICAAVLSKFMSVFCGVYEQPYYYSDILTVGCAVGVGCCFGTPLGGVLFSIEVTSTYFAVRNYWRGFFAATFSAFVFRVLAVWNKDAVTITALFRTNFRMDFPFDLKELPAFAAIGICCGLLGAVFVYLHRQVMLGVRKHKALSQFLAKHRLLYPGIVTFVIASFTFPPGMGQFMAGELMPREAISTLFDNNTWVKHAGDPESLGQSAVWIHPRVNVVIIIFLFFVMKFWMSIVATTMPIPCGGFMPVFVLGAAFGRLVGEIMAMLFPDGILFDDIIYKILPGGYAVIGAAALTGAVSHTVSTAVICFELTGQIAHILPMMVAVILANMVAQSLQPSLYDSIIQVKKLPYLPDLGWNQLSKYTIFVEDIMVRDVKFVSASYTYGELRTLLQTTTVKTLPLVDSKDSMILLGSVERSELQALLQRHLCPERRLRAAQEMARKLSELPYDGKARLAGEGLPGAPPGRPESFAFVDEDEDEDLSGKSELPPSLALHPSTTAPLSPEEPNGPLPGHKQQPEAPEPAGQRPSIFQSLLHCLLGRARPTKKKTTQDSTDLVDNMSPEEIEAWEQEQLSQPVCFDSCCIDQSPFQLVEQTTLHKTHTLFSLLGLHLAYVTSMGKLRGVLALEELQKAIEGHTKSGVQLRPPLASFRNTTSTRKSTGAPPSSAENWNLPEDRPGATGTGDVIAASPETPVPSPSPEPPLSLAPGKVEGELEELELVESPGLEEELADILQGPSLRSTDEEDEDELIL
Procedure: FIG. 13A-13B: FIG. 13A illustrates the voltage protocol used to evoke currents in whole cell patches of CHO cells expressing human CIC-1 channels.
The investigatory goal of these experiments was to evaluate how compounds affect the open probability and current amplitude of human CIC-1 channels expressed in CHO cells. Experiments were performed using an automated patch clamp system that allowed high throughput testing of whole cell patches together with both intracellular and extracellular addition of compound.
Automated whole cell patch clamp experiments were performed with the Qpatch 16 system (Sophion Bioscience, Ballerup, Denmark) at room temperature. Data acquisition and analysis were performed in the Qassay software (ver. 5.6, Odense).
To obtain tail currents, the membrane potential was stepped to −100 mV after each test voltage for 300 ms and then relaxed to −30 mV for 2 sec between sweeps (FIG. 3). I/V relationships for whole cell instant and steady state current amplitudes were obtained by plotting average current densities at the beginning and at the end of the 300 ms step against the membrane potential (FIG. 4).
In order to determine the relative overall open probability (Po), the instantaneous tail currents were normalized to the maximal tail current obtained following the most positive voltage step and plotted against the test voltage. Plots of normalized tail currents from each whole cell patch were then fitted to a Boltzmann function allowing determination of half activation voltages (V1/2, FIG. 5).
Osmolality adjusted to […] using sucrose.
Intracellular solutions contained: 80 mM […], 60 mM CsCl, 5/1 mM KOH/EGTA, 10 mM HEPES, 10 mM NaCl, pH adjusted to 7.2 with NaOH (2 M). Osmolality adjusted to ˜320 mOsm using sucrose.
Cells used in patch clamp experiments were Chinese hamster ovary cells (CHO) constitutively expressing human CIC-1 channels. The amino acid sequence encoded by the cDNA used to create this cell line was identical to the translated sequence for GenBank accession number NM_000083.2. Cells were produced by Charles River (Catalogue CT6175, Cleveland Ohio, USA) in a cryopreserved format. Experiments were performed on the cells directly after thawing (3×10^6 cells used in each experiment).
To evaluate the compound effect on CIC-1, when applied directly to the intracellular side of the cell membrane, the half activation voltage, V1/2, was determined from whole cell patches with compound added to the intracellular solution and then compared to V1/2 determined from control cell patches with only vehicle added to the intracellular solution. Additionally, the effect of extracellular added compound was evaluated by determine V1/2 and steady state current amplitudes before and after exchanging the extracellular solution to contain compound.
The difference in half activation voltage of CIC-1 channels, […]V1/2, was determined as the difference between the cell patches treated intracellularly with compound and control cells patches and is reported in Table 4 below. A positive shift in […]V1/2 is reflecting CIC-1 channel inhibition by the tested compound. P-values of <0.05 is considered significant.

| Molecule | increase in running performance on the second day vs the first day (rotarod) [1] | EC50 (CIC-1 channels) [µM] | ΔV½ (difference in half activation voltage of ClC-1) (human CIC-1 channels) [mV] |
| --- | --- | --- | --- |
| C[C@H](Oc1ccc(Br)cc1)C(=O)O [Compound C8, (2S)-2-(4-bromophenoxy)propanoic acid] | around 150% | – | – |
| (2S)-2-(4-bromophenoxy)(2-^2H)butanoic acid [Compound A-60] | – | 7.5 ± 1 | 20.0 |
